From ChEMBL document CHEMBL1201862, “PubChem BioAssay data set” (2004)
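Protocol summary: plate cells (96-well), add compound at 5 concentrations, incubate 48 h, interpolate endpoints linearly. GI50 marks 50% less growth.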 The source made the active and inactive calls. Cut-off read from the data, not from the text of the source: active = GI50 up to about 1.1 µM and inactive = higher.

Assays:
Test in all cases: NCI anticancer screen, dose series, 48 h
UO-31 = tested on: UO-31
OVCAR-4 = tested on: OVCAR-4
NCI-H522 = tested on: NCI-H522
HOP-62 = tested on: HOP-62
EKVX = tested on: EKVX
Malme-3M = tested on: Malme-3M
HOP-92 = tested on: HOP-92
NCI-H226 = tested on: NCI-H226
BT-549 = tested on: BT-549
SR = tested on: SR
HT-29 = tested on: HT-29
MDA-MB-435 = tested on: MDA-MB-435
UACC-62 = tested on: UACC-62
SK-MEL-5 = tested on: SK-MEL-5
LOX IMVI = tested on: LOX IMVI
RXF 393 = tested on: RXF 393
OVCAR-3 = tested on: OVCAR-3
SW-620 = tested on: SW-620
RPMI-8226 = tested on: RPMI-8226

Measured: GI50

COc1cc(C2S/C(=C/c3ccccc3)C(=O)N2c2cccc([N+](=O)[O-])c2)cc(OC)c1OC (centres undefined)
inactive: UO-31 94.6 µM | OVCAR-4 83.2 µM | NCI-H522 38.5 µM | HOP-62 > 100 µM | EKVX 50 µM | Malme-3M > 100 µM | HOP-92 62.1 µM | NCI-H226 > 100 µM | BT-549 > 100 µM | SR 46.6 µM | HT-29 50.1 µM | MDA-MB-435 17.5 µM | UACC-62 65.9 µM | SK-MEL-5 67.3 µM | LOX IMVI 40.8 µM

CC1CC(C)[C@H](O)C([C@H](O)CC2CC(=O)N(C)C(=O)C2)C1 (some centres undefined)
inactive: UO-31 > 100 µM | RXF 393 > 100 µM | OVCAR-4 > 100 µM | NCI-H522 57 µM | HOP-62 > 100 µM | EKVX > 100 µM | Malme-3M > 100 µM | HOP-92 32.3 µM | NCI-H226 > 100 µM | BT-549 > 100 µM | OVCAR-3 > 100 µM | HT-29 > 100 µM | SW-620 > 100 µM | MDA-MB-435 > 100 µM | RPMI-8226 > 100 µM | UACC-62 > 100 µM | SK-MEL-5 > 100 µM | LOX IMVI > 100 µM

CC(=O)Oc1c(OC(C)C)cc(=O)n2ccsc12
inactive: UO-31 > 100 µM | RXF 393 > 100 µM | OVCAR-4 > 100 µM | NCI-H522 42.2 µM | HOP-62 > 100 µM | EKVX > 100 µM | Malme-3M > 100 µM | HOP-92 > 100 µM | NCI-H226 > 100 µM | BT-549 > 100 µM | OVCAR-3 78.2 µM | HT-29 > 100 µM | SW-620 82 µM | MDA-MB-435 17.3 µM | RPMI-8226 29.4 µM | UACC-62 > 100 µM | SK-MEL-5 62.8 µM | LOX IMVI > 100 µM

COC(=O)c1c(O)ccc2c1c1c(n2Cc2cc(OC)cc(OC)c2)C(=O)c2ccccc2C1
inactive: UO-31 63.4 µM | RXF 393 19.7 µM | OVCAR-4 11.2 µM | HOP-62 > 100 µM | Malme-3M 68.5 µM | NCI-H226 93.3 µM | BT-549 55.5 µM | SR 13 µM | OVCAR-3 43.2 µM | HT-29 11.7 µM | SW-620 51.8 µM | MDA-MB-435 10.9 µM | RPMI-8226 7.82 µM | UACC-62 49.2 µM | SK-MEL-5 34.3 µM | LOX IMVI 33.1 µM

C=C(O)c1ccccc1C#Cc1ccccc1C(=O)OC
inactive: UO-31 > 10 µM | RXF 393 > 10 µM | OVCAR-4 > 10 µM | NCI-H522 > 10 µM | HOP-62 > 10 µM | EKVX > 10 µM | Malme-3M > 10 µM | NCI-H226 > 10 µM | BT-549 > 10 µM | SR > 10 µM | OVCAR-3 > 10 µM | HT-29 > 10 µM | SW-620 > 10 µM | MDA-MB-435 > 10 µM | RPMI-8226 > 10 µM | UACC-62 > 10 µM | SK-MEL-5 > 10 µM | LOX IMVI > 10 µM

COC(=O)C(Cc1ccc(OC)cc1O)NC(=O)OC(C)(C)C (centres undefined)
inactive: UO-31 > 100 µM | RXF 393 > 100 µM | OVCAR-4 > 100 µM | NCI-H522 96.6 µM | HOP-62 > 100 µM | EKVX > 100 µM | Malme-3M 78.5 µM | NCI-H226 > 100 µM | BT-549 > 100 µM | SR > 100 µM | OVCAR-3 > 100 µM | HT-29 > 100 µM | SW-620 > 100 µM | MDA-MB-435 > 100 µM | UACC-62 > 100 µM | SK-MEL-5 61.7 µM | LOX IMVI > 100 µM

O=C1C=CC[C@H](/C=C/C[C@@H](O)C[C@H](O)/C=C/c2ccccc2)O1
inactive: UO-31 13.2 µM | RXF 393 6.89 µM | OVCAR-4 14.6 µM | NCI-H522 4.25 µM | HOP-62 16.5 µM | EKVX 12 µM | Malme-3M 14.9 µM | HOP-92 2.56 µM | NCI-H226 12.8 µM | BT-549 10.8 µM | OVCAR-3 11.5 µM | HT-29 11.4 µM | SW-620 13.5 µM | MDA-MB-435 11.3 µM | UACC-62 15 µM | SK-MEL-5 13.7 µM | LOX IMVI 2.92 µM

O=C1c2ccccc2S(=O)(=O)c2ccccc21
inactive: UO-31 > 100 µM | RXF 393 > 100 µM | OVCAR-4 > 100 µM | NCI-H522 > 100 µM | HOP-62 > 100 µM | EKVX 61.1 µM | Malme-3M > 100 µM | HOP-92 > 100 µM | NCI-H226 > 100 µM | BT-549 > 100 µM | OVCAR-3 > 100 µM | HT-29 > 100 µM | SW-620 > 100 µM | MDA-MB-435 > 100 µM | RPMI-8226 > 100 µM | UACC-62 > 100 µM | SK-MEL-5 > 100 µM | LOX IMVI > 100 µM

Cn1cnc2c1c(=O)n(CCNCCO)c(=O)n2C
inactive: UO-31 > 100 µM | RXF 393 > 100 µM | OVCAR-4 > 100 µM | NCI-H522 > 100 µM | HOP-62 > 100 µM | EKVX > 100 µM | Malme-3M > 100 µM | HOP-92 > 100 µM | NCI-H226 > 100 µM | BT-549 > 100 µM | OVCAR-3 > 100 µM | HT-29 > 100 µM | SW-620 > 100 µM | MDA-MB-435 > 100 µM | RPMI-8226 > 100 µM | UACC-62 > 100 µM | SK-MEL-5 > 100 µM | LOX IMVI > 100 µM

CCc1c(O)cc(=O)oc1-c1ccc(OC)c(OC)c1
inactive: UO-31 > 100 µM | RXF 393 > 100 µM | OVCAR-4 > 100 µM | NCI-H522 64.1 µM | HOP-62 > 100 µM | EKVX > 100 µM | HOP-92 > 100 µM | BT-549 > 100 µM | OVCAR-3 > 100 µM | HT-29 > 100 µM | SW-620 > 100 µM | MDA-MB-435 > 100 µM | UACC-62 > 100 µM | SK-MEL-5 > 100 µM | LOX IMVI > 100 µM

Cc1ccc(-c2c(C#N)c(O)n(NS(=O)(=O)c3ccccc3)c(=O)c2C#N)cc1
inactive: RXF 393 > 100 µM | OVCAR-4 > 100 µM | NCI-H522 > 100 µM | HOP-62 > 100 µM | EKVX > 100 µM | Malme-3M > 100 µM | HOP-92 > 100 µM | NCI-H226 > 100 µM | BT-549 > 100 µM | HT-29 > 100 µM | SW-620 > 100 µM | MDA-MB-435 > 100 µM | UACC-62 > 100 µM | SK-MEL-5 68.5 µM | LOX IMVI > 100 µM

SCCSCCCSCCS
inactive: UO-31 15.7 µM | OVCAR-4 14 µM | NCI-H522 19.3 µM | HOP-62 > 100 µM | EKVX > 100 µM | BT-549 53.3 µM | SR 4.16 µM | OVCAR-3 76.4 µM | HT-29 > 100 µM | SW-620 > 100 µM | MDA-MB-435 > 100 µM | UACC-62 > 100 µM | SK-MEL-5 > 100 µM | LOX IMVI 47.5 µM
